Source: article PMC9953717, “Novel Green Fluorescent Polyamines to Analyze ATP13A2 and ATP13A3 Activity in the Mammalian Polyamine Transport System” (Biomolecules, 2023)

Target: T1, human ATP13A3 WT (A3 WT-OE) (Homo sapiens, UniProt Q9H7F0)
T1 construct: compared with catalytically dead D498N
T1 sequence (Q9H7F0 1-1226): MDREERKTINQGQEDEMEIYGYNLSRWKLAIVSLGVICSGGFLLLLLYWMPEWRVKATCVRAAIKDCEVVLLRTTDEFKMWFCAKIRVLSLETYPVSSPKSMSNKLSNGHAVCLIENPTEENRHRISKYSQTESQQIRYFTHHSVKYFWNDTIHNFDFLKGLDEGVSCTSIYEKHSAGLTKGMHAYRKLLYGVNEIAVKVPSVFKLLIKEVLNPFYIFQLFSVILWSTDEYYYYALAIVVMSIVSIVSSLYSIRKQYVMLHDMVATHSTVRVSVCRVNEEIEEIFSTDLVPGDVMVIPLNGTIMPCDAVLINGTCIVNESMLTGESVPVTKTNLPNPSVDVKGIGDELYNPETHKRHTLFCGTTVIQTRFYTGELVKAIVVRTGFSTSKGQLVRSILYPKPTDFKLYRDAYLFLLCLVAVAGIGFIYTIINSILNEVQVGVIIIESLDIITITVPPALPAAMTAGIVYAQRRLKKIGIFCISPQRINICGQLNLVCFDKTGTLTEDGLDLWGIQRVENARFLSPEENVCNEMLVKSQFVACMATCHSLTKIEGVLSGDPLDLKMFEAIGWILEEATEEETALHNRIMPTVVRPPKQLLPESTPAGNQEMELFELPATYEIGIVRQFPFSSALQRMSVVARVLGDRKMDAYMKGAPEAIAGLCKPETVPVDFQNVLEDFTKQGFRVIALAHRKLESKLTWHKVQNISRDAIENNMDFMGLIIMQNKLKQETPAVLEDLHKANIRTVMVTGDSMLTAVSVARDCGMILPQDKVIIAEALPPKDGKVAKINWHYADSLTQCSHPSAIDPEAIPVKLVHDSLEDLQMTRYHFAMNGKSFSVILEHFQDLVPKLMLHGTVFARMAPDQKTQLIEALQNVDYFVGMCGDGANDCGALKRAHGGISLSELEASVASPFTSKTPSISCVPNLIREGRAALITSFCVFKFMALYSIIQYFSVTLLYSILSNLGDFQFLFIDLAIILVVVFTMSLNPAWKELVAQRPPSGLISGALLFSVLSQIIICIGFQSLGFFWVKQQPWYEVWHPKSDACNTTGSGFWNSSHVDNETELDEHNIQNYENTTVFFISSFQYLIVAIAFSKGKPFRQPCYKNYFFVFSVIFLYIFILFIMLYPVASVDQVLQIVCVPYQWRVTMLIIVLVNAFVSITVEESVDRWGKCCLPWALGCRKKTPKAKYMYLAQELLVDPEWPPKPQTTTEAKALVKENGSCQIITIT
Assay: radiolabeled uptake in HMEC-1 cells, WT versus D498N overexpression
Type: cell-based
Details: 30 min, 37 °C, labelled compound

fold uptake at 5 μM	SMILES
26 fold	NCCCCN [14C-PUT]
41 fold	NCCCCNCCCN [14C-SPD]
